Series [1] has as its system Nakaseomyces glabratus. The series can be described thus: Antifungal activity against Candida glabrata 537 assessed as reduction in fungal viability incubated for 48 hrs by spot assay. The class given is functional, organism-based. The conditions noted are these: dose 0.5-1 µg/ml.
Series [2] has as its target T1, Lanosterol 14-alpha demethylase (Candida albicans (strain SC5314 / ATCC MYA-2876) (Yeast), UniProt P10613). The experiment in a line: Inhibition of Lanosterol 14-alpha demethylase in Candida albicans SC5314 assessed as reduction in ergosterol level at 8 ug/ml incubated for 8 hrs by GC-MS analysis relative to control. Conditions: at 8 µg/mL.
In series [3] the test system is [Candida] auris. The series can be described thus: Antifungal activity against fluconazole-resistant Candida auris 918 assessed as inhibition of fungal growth incubated for 48 hrs by microbroth dilution method. In kind it is functional. Conditions: Candidozyma auris. (Dilution methods test growth across graded concentrations, often in twofold steps.)
Series [4] relates to Candida parapsilosis. The series can be described thus: Antifungal activity against Candida parapsilosis 22019 assessed as inhibition of fungal growth incubated for 48 hrs by microbroth dilution method. The conditions noted are these: Lodderomyces parapsilosis. In kind it is functional.
Series [5] relates to Nakaseomyces glabratus. The series can be described thus: Antifungal activity against Candida glabrata 537 assessed as inhibition of fungal growth incubated for 48 hrs by spot assay. The class given is functional, organism-based. The conditions noted are these: dose 0.5-1 µg/ml.
Series [6] concerns Candida parapsilosis. The experiment in a line: Antifungal activity against Candida parapsilosis 22019 assessed as reduction in fungal viability incubated for 48 hrs by spot assay. The class given is functional, organism-based. Conditions: dose 0.5-1 µg/ml.
The subject of series [7] is [Candida] auris. The series can be described thus: Antifungal activity against Candida auris 891 assessed as inhibition of fungal growth incubated for 48 hrs by spot assay. The conditions noted are these: Candidozyma auris, dose 0.5-1 µg/ml. In kind it is functional, organism-based.
Another series addresses Cytochrome P450 2C9 (Homo sapiens, UniProt P11712). The experiment in a line: Inhibition of human CYP2C9 using diclofenac as substrate prewarmed for 10 mins followed by NADPH addition and measured after 10 mins by LC-MS/MS analysis. In kind it is ADME.
The nature of series [8]: Hemolytic activity in rabbit RBC at 64 ug/ml incubated for 1 hr by absorbance based analysis. In kind it is toxicity, cell-based, Oryctolagus cuniculus, Erythrocyte. Conditions: rabbit red blood cells, at 64 µg/mL, read-out: Activity.
A short description of series [9]: Selectivity index, ratio of IC50 for HUVEC cells to MIC for Candida albicans SC5314. The class given is toxicity. Conditions: human, HUVEC cells versus Candida albicans SC5314; read-out: Selectivity Index.
Series [10] concerns Candida parapsilosis. The series can be described thus: Antifungal activity against Candida parapsilosis 22019 assessed as inhibition of fungal growth incubated for 48 hrs by spot assay. The class given is functional, organism-based. The conditions noted are these: dose 0.5-1 µg/ml.
For series [11], the system named is Candida albicans. The series can be described thus: Antifungal activity against Candida albicans 904 assessed as inhibition of fungal growth incubated for 48 hrs by spot assay. In kind it is functional, organism-based. Conditions: dose 0.5-1 µg/ml.
The target of the next series is T2, Cytochrome P450 1A2 (Homo sapiens, UniProt P05177).
T2 sequence (P05177 whole entry): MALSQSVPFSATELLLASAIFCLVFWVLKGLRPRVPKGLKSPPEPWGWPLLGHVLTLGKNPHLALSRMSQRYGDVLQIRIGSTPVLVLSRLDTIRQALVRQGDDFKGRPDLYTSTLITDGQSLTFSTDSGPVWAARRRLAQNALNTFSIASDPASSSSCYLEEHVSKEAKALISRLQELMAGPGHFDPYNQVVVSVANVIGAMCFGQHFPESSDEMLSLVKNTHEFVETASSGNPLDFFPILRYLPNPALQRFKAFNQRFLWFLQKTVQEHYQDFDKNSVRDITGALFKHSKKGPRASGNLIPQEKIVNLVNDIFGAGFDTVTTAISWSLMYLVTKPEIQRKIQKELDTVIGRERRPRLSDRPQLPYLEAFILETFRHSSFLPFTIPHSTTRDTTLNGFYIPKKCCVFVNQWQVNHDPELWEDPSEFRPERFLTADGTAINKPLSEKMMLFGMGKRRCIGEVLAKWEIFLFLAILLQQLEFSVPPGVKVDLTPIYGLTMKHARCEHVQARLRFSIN
The series can be described thus: Inhibition of human CYP1A2 using phenacetin as substrate prewarmed for 10 mins followed by NADPH addition and measured after 10 mins by LC-MS/MS analysis. The class given is ADME.

For series [12], the system named is Candida albicans. The experiment in a line: Antifungal activity against Candida albicans SC5314 assessed as reduction in fungal viability incubated for 48 hrs by spot assay. Conditions: dose 0.5-1 µg/ml. In kind it is functional, organism-based.
The test system of series [13] is [Candida] auris. The experiment in a line: Antifungal activity against Candida auris 891 assessed as reduction in fungal viability incubated for 48 hrs by spot assay. The class given is functional, organism-based. Conditions: Candidozyma auris, dose 0.5-1 µg/ml.
The subject of series [14] is Candida albicans. The series can be described thus: Antifungal activity against Candida albicans 904 assessed as reduction in fungal viability incubated for 48 hrs by spot assay. In kind it is functional, organism-based. The conditions noted are these: dose 0.5-1 µg/ml.
In series [15] the test system is Candida albicans. The experiment in a line: Antifungal activity against Candida albicans SC5314 assessed as inhibition of fungal growth incubated for 48 hrs by spot assay. The conditions noted are these: dose 0.5-1 µg/ml. The class given is functional, organism-based.
For series [16], the system named is Candida albicans. The experiment in a line: Antifungal activity against Candida albicans SC5314 infected in Galleria mellonella larvae assessed as median survival time at 8 mg/kg measured after 10 days post inoculation. Conditions: time 10 day. The class given is functional.
Series [17] concerns Candida albicans. The series can be described thus: Antifungal activity against Candida albicans assessed as increase in pseudohyphae at 16 ug/ml. The conditions noted are these: dose 16.0 µg/ml. The class given is functional, organism-based.
The test system of series [18] is Candida albicans. The experiment in a line: Antifungal activity against Candida albicans SC5314 infected in Galleria mellonella larvae assessed as delay in time of larval death at 8 mg/kg measured after 10 days post inoculation. In kind it is functional, organism-based. The conditions noted are these: time 10.0 day.
The target of series [19] is T1, Lanosterol 14-alpha demethylase. The experiment in a line: Inhibition of Lanosterol 14-alpha demethylase in Candida albicans SC5314 assessed as increase in 14alpha-methylfecosterol level at 8 ug/ml incubated for 8 hrs by GC-MS analysis relative to control. On the set-up: scale not given: the % may be the effect or the level left. The conditions noted are these: at 8 µg/mL.

In series [20] the test system is Candida albicans. The experiment in a line: Antifungal activity against Candida albicans SC5314 infected in Galleria mellonella larvae assessed as larval survival rate at 8 mg/kg measured after 10 days post inoculation relative to control. In kind it is functional. Conditions: SC5314, 240 h, time 10 day.
Series [21] relates to Candida albicans. The series can be described thus: Antifungal activity against Candida albicans SC5314 infected in Galleria mellonella larvae assessed as prolongation of survival time at 2 mg/kg measured after 10 days post inoculation. In kind it is functional, organism-based. Conditions: time 10.0 day.
For series [22], the system named is Candida albicans. The series can be described thus: Antifungal activity against Candida albicans SC5314 infected in Galleria mellonella larvae assessed as increase in survival rate at 2 mg/kg measured after 10 days post inoculation. The class given is functional, organism-based. Conditions: time 10.0 day.
The subject of series [23] is Candida albicans. The series can be described thus: Antifungal activity against Candida albicans assessed as reduction in hyphal length at 16 ug/ml. In kind it is functional, organism-based. Conditions: dose 16.0 µg/ml.
The test system of series [24] is Candida albicans. The series can be described thus: Antifungal activity against Candida albicans SC5314 assessed as inhibition of fungal growth at 16 ug/ml measured after 24 hrs by optical density based method. In kind it is functional.
Series [25] deals with T1, Lanosterol 14-alpha demethylase. The series can be described thus: Inhibition of Lanosterol 14-alpha demethylase in Candida albicans SC5314 assessed as increase in obtusifoliol level at 8 ug/ml incubated for 8 hrs by GC-MS analysis relative to control. On the set-up: scale not given: the % may be the effect or the level left. Conditions: at 8 µg/mL.
For series [26] the target is unchanged. The experiment in a line: Inhibition of Lanosterol 14-alpha demethylase in Candida albicans SC5314 assessed as increase in lanosterol level at 8 ug/ml incubated for 8 hrs by GC-MS analysis (reference value: 2.79%). Details: scale not given: the % may be the effect or the level left. Conditions: at 8 µg/mL.
The target is the same in series [27]. The series can be described thus: Inhibition of Lanosterol 14-alpha demethylase in Candida albicans SC5314 assessed as increase in eburicol level at 8 ug/ml incubated for 8 hrs by GC-MS analysis relative to control. On the set-up: scale not given: the % may be the effect or the level left. Conditions: at 8 µg/mL.
Series [28] has the same target. The series can be described thus: Inhibition of Lanosterol 14-alpha demethylase in Candida albicans SC5314 assessed as remaining ergosterol level at 8 ug/ml incubated for 8 hrs by GC-MS analysis (reference value: 89.76%). Conditions: at 8 µg/mL.

In brackets after ≈: the same amount, converted by molar mass. Activity calls are given as the source filed them. The rule behind the calls is not given here.

T1 sequence (P10613 whole entry): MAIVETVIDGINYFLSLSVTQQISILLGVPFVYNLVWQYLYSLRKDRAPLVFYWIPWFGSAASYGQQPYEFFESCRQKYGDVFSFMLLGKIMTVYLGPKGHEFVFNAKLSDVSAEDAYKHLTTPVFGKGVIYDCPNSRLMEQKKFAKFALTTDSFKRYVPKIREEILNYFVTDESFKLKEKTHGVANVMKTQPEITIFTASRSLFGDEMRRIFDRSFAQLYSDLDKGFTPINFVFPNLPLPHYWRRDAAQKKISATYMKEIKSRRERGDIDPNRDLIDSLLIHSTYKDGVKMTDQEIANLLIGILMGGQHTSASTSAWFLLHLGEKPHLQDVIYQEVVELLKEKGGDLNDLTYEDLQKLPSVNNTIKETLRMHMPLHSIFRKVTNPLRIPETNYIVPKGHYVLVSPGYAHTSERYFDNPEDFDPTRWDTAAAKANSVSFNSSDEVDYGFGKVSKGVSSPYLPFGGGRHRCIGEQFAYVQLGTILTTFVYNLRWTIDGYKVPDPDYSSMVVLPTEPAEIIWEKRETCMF
Chain of Cytochrome P450 2C9 (P11712 whole entry): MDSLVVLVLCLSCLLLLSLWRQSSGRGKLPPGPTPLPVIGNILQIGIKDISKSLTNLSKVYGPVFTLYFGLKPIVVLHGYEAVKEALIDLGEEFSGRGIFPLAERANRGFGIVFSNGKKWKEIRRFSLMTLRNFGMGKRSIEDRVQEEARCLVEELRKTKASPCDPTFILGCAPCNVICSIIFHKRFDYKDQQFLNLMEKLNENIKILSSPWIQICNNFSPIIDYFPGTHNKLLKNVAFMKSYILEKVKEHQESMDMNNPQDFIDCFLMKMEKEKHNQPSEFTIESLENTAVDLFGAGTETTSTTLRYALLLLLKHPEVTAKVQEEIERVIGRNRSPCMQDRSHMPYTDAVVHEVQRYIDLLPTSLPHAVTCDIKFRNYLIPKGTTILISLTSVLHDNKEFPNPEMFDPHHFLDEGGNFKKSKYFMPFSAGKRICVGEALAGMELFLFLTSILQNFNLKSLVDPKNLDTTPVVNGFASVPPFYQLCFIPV

Turning to `C[C@@H](OCC#Cc1ccc(F)cc1F)[C@](O)(Cn1cncn1)c1ccc(F)cc1F`, the Activity entry (with Nakaseomyces glabratus [1]; in the series on Nakaseomyces glabratus [5]; with Candida parapsilosis [6]; in [Candida] auris [7]; in the series with Candida parapsilosis [10]; with Candida albicans [11]) was “Dose-Dependent Effect” in each case. The Activity result (with Candida albicans [12]; in series [Candida] auris [13]; in the series on Candida albicans [14]; with Candida albicans [15]) was “Dose-Dependent Effect” each time. Also, in [2], the “inhibition (INH)” value is given as ~ 100%. Moreover, the MIC (usually the lowest concentration that inhibits growth of the organism) in [Candida] auris [3] came to 16 µg/mL (≈ 38.2 µM); in the series with Candida parapsilosis [4] it was 0.5 µg/mL (≈ 1.19 µM). For the same compound, the IC50 (as a rule, the concentration needed to halve the response being measured) stood at 0.023 µM at Cytochrome P450 2C9 and 50.7 µM against Cytochrome P450 1A2. Besides, the hemolysis at 1 h, 64 ug/ml in series [8] turned out to be 1.32%. Also, the selectivity ratio in series [9] was over 500.
`C[C@@H](OCC#Cc1ccc(C#N)cc1)[C@](O)(Cn1cncn1)c1ccc(F)cc1F`: the MST in the series with Candida albicans [16] was determined as 10 days. Also, the Activity result in the series on Nakaseomyces glabratus [1] is “Dose-Dependent Effect”; in the series with Nakaseomyces glabratus [5], “Dose-Dependent Effect”; in series [19], 36.87%; in the series on Candida parapsilosis [6], “Dose-Dependent Effect”; in series [Candida] auris [7], “Dose-Dependent Effect”; with Candida parapsilosis [10] it was “Dose-Dependent Effect”. For the same compound, the Activity entry with Candida albicans [11] is “Dose-Dependent Effect”; in the series with Candida albicans [12] it was “Dose-Dependent Effect”; in [Candida] auris [13], “Dose-Dependent Effect”; in [25], 12.82%; in the series with Candida albicans [14] it was “Dose-Dependent Effect”; in the series with Candida albicans [15], “Dose-Dependent Effect”. Moreover, the Activity in series [26] was 37.18%; in [27], 13.13%. The “inhibition (INH)” value in [2] is reported as ~ 100%. The MIC in series [Candida] auris [3] is 32 µg/mL (≈ 78.4 µM); with Candida parapsilosis [4], 1 µg/mL (≈ 2.45 µM). Moreover, the outcome in the series on Candida albicans [17], with Candida albicans [18], with Candida albicans [21] and with Candida albicans [23] was Active. In addition, in the series on Candida albicans [20], the survival at 8 mg/kg worked out at 40%. Moreover, the IC50 was 0.034 µM at Cytochrome P450 2C9 and 42.6 µM against Cytochrome P450 1A2. In addition, in [8], the hemolysis at 1 h, 64 ug/ml worked out at 1.22%. The selectivity ratio in series [9] is over 500. In addition, the result with Candida albicans [22] was inactive. In the series with Candida albicans [24], the inhibition (as a rule, the relative decrease from the control value, in per cent) at 16 µg/mL is 100%.
For `C[C@@H](OCC#Cc1ccncc1)[C@](O)(Cn1cncn1)c1ccc(F)cc1F`, the figures for the MIC (in [Candida] auris [3]; in the series with Candida parapsilosis [4]) were 16 µg/mL (≈ 41.6 µM) and at most 0.125 µg/mL, respectively. Besides, the IC50 on Cytochrome P450 2C9 came out at 0.039 µM; on Cytochrome P450 1A2, 31.1 µM. Further, the hemolysis at 1 h, 64 ug/ml in series [8] came to 1.36%. Also, the selectivity ratio in [9] is over 500. Moreover, in series [28], the Activity turned out to be 1.1%.

Values taken from ChEMBL document CHEMBL5620353, “Novel antifungal triazoles with alkynyl-methoxyl side chains: Design, synthesis, and biological activity evaluation” (Eur J Med Chem, 2023).
